Assay: Inhibition of Her2 in SKBr3 cells by ELISA

| SMILES | IC50 [µM] |
| --- | --- |
| COc1cc(C2CC(c3ccccc3O)N=N2)ccc1O (stereo not drawn) [6-[5-(4-hydroxy-3-methoxyphenyl)-3-pyrazolidinylidene]-1-cyclohexa-2,4-dienone] | 18 |
| O=S(=O)(Nc1ccc(Cl)cc1O)c1ccccc1 | 31 |
| CC1(C)CC(=O)C2C(=Nc3ccccc3NC2c2cccc(O)c2O)C1 (stereo not drawn) [3-(1-hydroxy-3,3-dimethyl-3,4,10,11-tetrahydro-2H-dibenzo[b,e][1,4]diazepin-11-yl)-benzene-1,2-diol] | 61 |
